Assay type in all cases: in vivo
For test [1], the system named is Alopecurus myosuroides (ALOMY). As to the kind of experiment: Post-emergence herbicidal glasshouse test on Alopecurus myosuroides. As to conditions: post-emergence application, Alopecurus myosuroides, damage score 1-5. The method in brief: (§1)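 Herbicidal damage was rated 13 days after treatment on a five-point scale, where 5 denotes 80-100% and 1 denotes 0-19% damage. Spraying at 1000 g/h followed sowing by one day (pre-emergence) or eight days (post-emergence).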

Test [2] concerns Amaranthus retoflexus (AMARE). Description: Post-emergence herbicidal glasshouse test on Amaranthus retoflexus. As to conditions: post-emergence application, Amaranthus retoflexus, damage score 1-5. The procedure, abridged: as §1
Test [3] relates to Echinochloa crus-galli (ECHCG). As to the kind of experiment: Post-emergence herbicidal glasshouse test on Echinochloa crus-galli. As to conditions: post-emergence application, Echinochloa crus-galli, damage score 1-5. The method in brief:
as §1

For test [4], the system named is Ipomoea hederacea (IPOHE). Description: Post-emergence herbicidal glasshouse test on Ipomoea hederacea. The following applies: post-emergence application, Ipomoea hederacea, damage score 1-5. The procedure, abridged:
as §1

In test [5] the test system is Echinochloa crus-galli (ECHCG). As to the kind of experiment: Pre-emergence herbicidal glasshouse test on Echinochloa crus-galli. The following applies: pre-emergence application, Echinochloa crus-galli, damage score 1-5. The procedure, abridged:
as §1

Test [6] concerns Setaria faberi (SETFA). Description: Post-emergence herbicidal glasshouse test on Setaria faberi. The following applies: post-emergence application, Setaria faberi, damage score 1-5. The procedure, abridged: as §1
Test [7] deals with Solanum nigrum (SOLNI). Description: Pre-emergence herbicidal glasshouse test on Solanum nigrum. The following applies: pre-emergence application, Solanum nigrum, damage score 1-5. The procedure, abridged: as §1
Test [8] relates to Alopecurus myosuroides (ALOMY). As to the kind of experiment: Pre-emergence herbicidal glasshouse test on Alopecurus myosuroides. The following applies: pre-emergence application, Alopecurus myosuroides, damage score 1-5. The method in brief: as §1
For test [9], the system named is Amaranthus retoflexus (AMARE). Description: Pre-emergence herbicidal glasshouse test on Amaranthus retoflexus. The following applies: pre-emergence application, Amaranthus retoflexus, damage score 1-5. The method in brief:
as §1

The subject of test [10] is Ipomoea hederacea (IPOHE). As to the kind of experiment: Pre-emergence herbicidal glasshouse test on Ipomoea hederacea. As to conditions: pre-emergence application, Ipomoea hederacea, damage score 1-5. The procedure, abridged:
as §1

Test [11] deals with Solanum nigrum (SOLNI). Description: Post-emergence herbicidal glasshouse test on Solanum nigrum. The following applies: post-emergence application, Solanum nigrum, damage score 1-5. The method in brief: as §1
Test [12] concerns Setaria faberi (SETFA). Description: Pre-emergence herbicidal glasshouse test on Setaria faberi. The following applies: pre-emergence application, Setaria faberi, damage score 1-5. The method in brief: as §1

In the case of `CCCn1c(-c2cccc(Cl)c2)ncc(-c2cnn(C)c(=O)c2O)c1=O` [Compound 10.002], in test [1], the “POST Application ALOMY” value was 1 (1=0-19% damage). In [2], the “POST Application AMARE” value is given as 5 (5=80-100% damage). In addition, the “POST Application ECHCG” value in test [3] was 2 (2=20-39% damage). The “POST Application IPOHE” value in test [4] was 4 (4=60-79% damage). For the same compound, the “PRE Application ECHCG” value in test [5] was 1 (1=0-19% damage). In addition, the “POST Application SETFA” value in the test on Setaria faberi (SETFA) [6] is 1 (1=0-19% damage). The “PRE Application SOLNI” value with Solanum nigrum (SOLNI) [7] was 1 (1=0-19% damage). Also, in [8], the “PRE Application ALOMY” value is given as 1 (1=0-19% damage). The “PRE Application AMARE” value in [9] is 4 (4=60-79% damage). The “PRE Application IPOHE” value in test [10] is given as 1 (1=0-19% damage). For the same compound, in the test with Solanum nigrum (SOLNI) [11], the “POST Application SOLNI” value is 5 (5=80-100% damage). The “PRE Application SETFA” value in the test on Setaria faberi (SETFA) [12] is 1 (1=0-19% damage).

In the case of `Cn1ncc(-c2cnc(-c3cccc(F)c3)n(C3CCCCC3)c2=O)c(O)c1=O` [Compound 10.003, 3-cyclohexyl-2-(3-fluorophenyl)-5-(5-hydroxy-1-methyl-6-oxo-pyridazin-4-yl)pyrimidin-4-one], the “POST Application ALOMY” value in test [1] is listed as 1 (1=0-19% damage). Further, the “POST Application AMARE” value in [2] is 5 (5=80-100% damage). For the same compound, the “POST Application ECHCG” value in [3] is reported as 5 (5=80-100% damage). In addition, in [4], the “POST Application IPOHE” value is listed as 4 (4=60-79% damage). Further, in test [5], the “PRE Application ECHCG” value was 1 (1=0-19% damage). Also, in the test with Setaria faberi (SETFA) [6], the “POST Application SETFA” value was 4 (4=60-79% damage). Also, the “PRE Application SOLNI” value in the test on Solanum nigrum (SOLNI) [7] is 1 (1=0-19% damage). Further, the “PRE Application ALOMY” value in [8] is given as 1 (1=0-19% damage). The “PRE Application AMARE” value in test [9] is 5 (5=80-100% damage). Further, in test [10], the “PRE Application IPOHE” value is 1 (1=0-19% damage). The “POST Application SOLNI” value in the test with Solanum nigrum (SOLNI) [11] is on record as 5 (5=80-100% damage). Moreover, the “PRE Application SETFA” value in the test with Setaria faberi (SETFA) [12] is recorded as 1 (1=0-19% damage).

`Cc1ccc(Cl)cc1-n1c(-c2cccc(F)c2)ncc(-c2cnn(C)c(=O)c2O)c1=O` [Compound 10.004]: the “POST Application ALOMY” value in [1] was 1 (1=0-19% damage). In test [2], the “POST Application AMARE” value is 5 (5=80-100% damage). Besides, in test [3], the “POST Application ECHCG” value was 4 (4=60-79% damage). Further, in test [4], the “POST Application IPOHE” value was 4 (4=60-79% damage). In addition, the “PRE Application ECHCG” value in test [5] is reported as 1 (1=0-19% damage). Besides, the “POST Application SETFA” value with Setaria faberi (SETFA) [6] is reported as 3 (3=40-59% damage). Moreover, in the test with Solanum nigrum (SOLNI) [7], the “PRE Application SOLNI” value is given as 1 (1=0-19% damage). The “PRE Application ALOMY” value in test [8] is 1 (1=0-19% damage). Also, the “PRE Application AMARE” value in [9] is given as 2 (2=20-39% damage). In addition, the “PRE Application IPOHE” value in test [10] is given as 1 (1=0-19% damage). For the same compound, the “POST Application SOLNI” value in the test on Solanum nigrum (SOLNI) [11] was 5 (5=80-100% damage). For the same compound, in the test with Setaria faberi (SETFA) [12], the “PRE Application SETFA” value is 1 (1=0-19% damage).

For the origin of these results see patent US9693556B2, “Herbicidal pyridazinone derivatives” (SYNGENTA LIMITED, priority 2011, dated 2017).
